From US20150105252A1, “SUBSTITUTED PYRAZOLES AS HERBICIDES” (E I DU PONT DE NEMOURS AND COMPANY, priority 2013, published 2015)

Columns and labels:
[1] = system: foxtail, giant; assay: Test C postemergence; format: in vivo, Setaria faberii; settings: for Foxtail, Giant plant response rating: scale 0 to 100
In short: (§1)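 Herbicidal effect is expressed as percent visual control (0–100) judged against untreated plants 13 to 15 days after treatment in the greenhouse. Preemergence pots contained seeds in a soil–sand blend; postemergence plants, 2–18 cm tall, grew in peat-based planting medium.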

[2] = system: lambsquarters; assay: Test C postemergence; format: in vivo, Chenopodium album; settings: for Lambsquarters plant response rating: scale 0 to 100
In short: as §1

[3] = system: pigweed; assay: Test C preemergence; format: in vivo, Amaranthus retroflexus; settings: for Plant response rating (scale of 0 to 100), Pigweed: Preemergence, 250 g ai/ha; for Pigweed plant response rating / Plant response rating, Pigweed: preemergence; for Plant response rating, Pigweed: 62 g ai/ha, scale 0 to 100, 0 = no effect, 100 = complete control
In short: as §1

[4] = system: corn; assay: Test C preemergence; format: in vivo, Zea mays; settings: for Plant response rating (scale of 0 to 100), Corn: Preemergence, 250 g ai/ha; for Corn plant response rating / Plant response rating, Corn: preemergence; for Plant response rating, Corn: 62 g ai/ha, scale 0 to 100, 0 = no effect, 100 = complete control
In short: as §1

[5] = system: johnsongrass; assay: Test C postemergence; format: in vivo, Sorghum halepense; settings: for Johnsongrass plant response rating: scale 0 to 100
In short: as §1

[6] = system: blackgrass; assay: Test C preemergence; format: in vivo, Alopecurus myosuroides; settings: for Plant response rating (scale of 0 to 100), Blackgrass: Preemergence, 250 g ai/ha; for Blackgrass plant response rating / Plant response rating, Blackgrass: preemergence; for Plant response rating, Blackgrass: 62 g ai/ha, scale 0 to 100, 0 = no effect, 100 = complete control
In short: as §1

[7] = system: wheat; assay: Test C preemergence; format: in vivo, Triticum aestivum; settings: for Plant response rating (scale of 0 to 100), Wheat: Preemergence, 250 g ai/ha; for Wheat plant response rating / Plant response rating, Wheat: preemergence; for Plant response rating, Wheat: 62 g ai/ha, scale 0 to 100, 0 = no effect, 100 = complete control
In short: as §1

[8] = system: soybean; assay: Test C preemergence; format: in vivo, Glycine max; settings: for Plant response rating (scale of 0 to 100), Soybean: Preemergence, 250 g ai/ha; for Soybean plant response rating / Plant response rating, Soybean: preemergence; for Plant response rating, Soybean: 62 g ai/ha, scale 0 to 100, 0 = no effect, 100 = complete control
In short: as §1

[9] = system: galium; assay: Test C preemergence; format: in vivo, Galium aparine; settings: for Plant response rating (scale of 0 to 100), Galium: Preemergence, 250 g ai/ha; for Galium plant response rating / Plant response rating, Galium: preemergence; for Plant response rating, Galium: 62 g ai/ha, scale 0 to 100, 0 = no effect, 100 = complete control
In short: as §1

[10] = system: ragweed; assay: Test C preemergence; format: in vivo, Ambrosia elation; settings: for Plant response rating (scale of 0 to 100), Ragweed: Preemergence, 250 g ai/ha; for Ragweed plant response rating / Plant response rating, Ragweed: preemergence; for Plant response rating, Ragweed: 62 g ai/ha, scale 0 to 100, 0 = no effect, 100 = complete control
In short: as §1

[11] = system: velvetleaf; assay: Test A postemergence; format: in vivo, Abutilon theophrasti
In short: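 Pre- and postemergence greenhouse test; loam+sand; cpd in non-phytotox. solvent/surfactant; post at 1–2 leaf, 2–10 cm; visual score ~10 d, 0 = none, 100 = complete control.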

[12] = system: chickweed; assay: Test C postemergence; format: in vivo, Stellaria media; settings: for Chickweed plant response rating: scale 0 to 100
In short: as §1

[13] = system: wheat; assay: Test C postemergence; format: in vivo, Triticum aestivum; settings: postemergence; for Wheat plant response rating: 62 g ai/ha, scale 0 to 100
In short: as §1

[14] = postemergence, 250 g ai/ha, scale 0 to 100 (0 no effect, 100 complete control)
[15] = postemergence, 125 g ai/ha, scale 0 to 100, 0 no effect, 100 complete control
[16] = 31 g ai/ha, scale 0 to 100 (0 no effect, 100 complete control), 13 to 15 days
[17] = 125 g ai/ha, scale 0 to 100, 0 is no effect, 100 is complete control
[18] = 250 g ai/ha, scale 0 to 100 (0 no effect, 100 complete control)
[19] = 125 g ai/ha, scale 0 to 100, 0 no effect, 100 complete control

CCONC(=O)c1cc(CC)n(Cc2cccc(OC(F)(F)F)c2)n1 [Compound 72]
Foxtail, Giant plant response rating ([1]; Postemergence, 31 g ai/ha): 5 | Foxtail, Giant plant response rating ([1]; postemergence, 62 g ai/ha): 5 | Plant response rating, Foxtail, Giant [1, 14]: 15 | Plant response rating, Foxtail, Giant [1, 15]: 5 | Lambsquarters plant response rating ([2]; Postemergence, 31 g ai/ha): 60 | Lambsquarters plant response rating ([2]; postemergence, 62 g ai/ha): 70 | Plant response rating, Lambsquarters [2, 14]: 98 | Plant response rating, Lambsquarters [2, 15]: 90 | Plant response rating (scale of 0 to 100), Pigweed [3]: 100 | Pigweed plant response rating [3, 16]: 100 | Plant response rating, Pigweed ([3]; 13 to 15 days): 100 | Pigweed plant response rating [3, 17]: 100 | Plant response rating (scale of 0 to 100), Corn [4]: 75 | Corn plant response rating [4, 16]: 30 | Plant response rating, Corn ([4]; 13 to 15 days): 45 | Corn plant response rating [4, 17]: 60 | Johnsongrass plant response rating ([5]; Postemergence, 31 g ai/ha): 0 | Johnsongrass plant response rating ([5]; postemergence, 62 g ai/ha): 0 | Plant response rating, Johnsongrass [5, 14]: 0 | Plant response rating, Johnsongrass [5, 15]: 0 | Plant response rating (scale of 0 to 100), Blackgrass [6]: 85 | Blackgrass plant response rating [6, 16]: 45 | Plant response rating, Blackgrass ([6]; 13 to 15 days): 80 | Blackgrass plant response rating [6, 17]: 85 | Plant response rating (scale of 0 to 100), Wheat [7]: 85 | Wheat plant response rating [7, 16]: 5 | Plant response rating, Wheat ([7]; 13 to 15 days): 20 | Wheat plant response rating [7, 17]: 50 | Plant response rating (scale of 0 to 100), Soybean [8]: 75 | Soybean plant response rating [8, 16]: 20 | Plant response rating, Soybean ([8]; 13 to 15 days): 60 | Soybean plant response rating [8, 17]: 75 | Plant response rating (scale of 0 to 100), Galium [9]: 100 | Galium plant response rating [9, 16]: 70 | Plant response rating, Galium ([9]; 13 to 15 days): 98 | Galium plant response rating [9, 17]: 100 | Plant response rating (scale of 0 to 100), Ragweed [10]: 60 | Ragweed plant response rating [10, 16]: 0 | Plant response rating, Ragweed ([10]; 13 to 15 days): 50 | Ragweed plant response rating [10, 17]: 55 | Velvetleaf plant response rating ([11]; Postemergence, 500 g ai/ha, visual rating after approx. 10 days, 0 to 100 scale (0 no effect, 100 complete control)): 90 | Velvetleaf plant response rating ([11]; postemergence, 125 g ai/ha, about 10 days, visual rating on 0 to 100 scale (0 no effect, 100 complete control)): 80 | Chickweed plant response rating ([12]; Postemergence, 31 g ai/ha): 40 | Chickweed plant response rating ([12]; postemergence, 62 g ai/ha): 40 | Plant response rating, Chickweed [12, 14]: 80 | Plant response rating, Chickweed [12, 15]: 50 | Wheat plant response rating [13]: 5 | Plant response rating, Wheat [13, 18]: 10 | Plant response rating, Wheat [13, 19]: 10

Cc1cc(C(=O)NCC(F)(F)F)nn1Cc1ccnc(C(F)(F)F)c1 [Compound 74]
Foxtail, Giant plant response rating ([1]; Postemergence, 31 g ai/ha): 5 | Foxtail, Giant plant response rating ([1]; postemergence, 62 g ai/ha): 10 | Plant response rating, Foxtail, Giant [1, 14]: 25 | Plant response rating, Foxtail, Giant [1, 15]: 10 | Lambsquarters plant response rating ([2]; Postemergence, 31 g ai/ha): 20 | Lambsquarters plant response rating ([2]; postemergence, 62 g ai/ha): 35 | Plant response rating, Lambsquarters [2, 14]: 90 | Plant response rating, Lambsquarters [2, 15]: 80 | Plant response rating (scale of 0 to 100), Pigweed [3]: 100 | Pigweed plant response rating [3, 16]: 100 | Plant response rating, Pigweed ([3]; 13 to 15 days): 100 | Pigweed plant response rating [3, 17]: 100 | Plant response rating (scale of 0 to 100), Corn [4]: 98 | Corn plant response rating [4, 16]: 10 | Plant response rating, Corn ([4]; 13 to 15 days): 60 | Corn plant response rating [4, 17]: 75 | Johnsongrass plant response rating ([5]; Postemergence, 31 g ai/ha): 0 | Johnsongrass plant response rating ([5]; postemergence, 62 g ai/ha): 0 | Plant response rating, Johnsongrass [5, 14]: 15 | Plant response rating, Johnsongrass [5, 15]: 5 | Plant response rating (scale of 0 to 100), Blackgrass [6]: 90 | Blackgrass plant response rating [6, 16]: 10 | Plant response rating, Blackgrass ([6]; 13 to 15 days): 85 | Blackgrass plant response rating [6, 17]: 90 | Plant response rating (scale of 0 to 100), Wheat [7]: 90 | Wheat plant response rating [7, 16]: 0 | Plant response rating, Wheat ([7]; 13 to 15 days): 5 | Wheat plant response rating [7, 17]: 15 | Plant response rating (scale of 0 to 100), Soybean [8]: 98 | Soybean plant response rating [8, 16]: 25 | Plant response rating, Soybean ([8]; 13 to 15 days): 55 | Soybean plant response rating [8, 17]: 85 | Plant response rating (scale of 0 to 100), Galium [9]: 100 | Galium plant response rating [9, 16]: 85 | Plant response rating, Galium ([9]; 13 to 15 days): 100 | Galium plant response rating [9, 17]: 100 | Plant response rating (scale of 0 to 100), Ragweed [10]: 90 | Ragweed plant response rating [10, 16]: 30 | Plant response rating, Ragweed ([10]; 13 to 15 days): 60 | Ragweed plant response rating [10, 17]: 80 | Velvetleaf plant response rating ([11]; Postemergence, 1000 g ai/ha, visual rating after approx. 10 days, 0 to 100 scale (0 no effect, 100 complete control)): 100 | Chickweed plant response rating ([12]; Postemergence, 31 g ai/ha): 20 | Chickweed plant response rating ([12]; postemergence, 62 g ai/ha): 45 | Plant response rating, Chickweed [12, 14]: 55 | Plant response rating, Chickweed [12, 15]: 45 | Wheat plant response rating [13]: 0 | Plant response rating, Wheat [13, 18]: 5 | Plant response rating, Wheat [13, 19]: 0
